Reference: ChEMBL document CHEMBL1138307, “Structure activity relationship studies of carboxamido-biaryl ethers as opioid receptor antagonists (OpRAs). Part 2” (Bioorg Med Chem Lett, 2007)

Tests used:
Format in all cases: cell-based
[1] = molecular target: Delta-type opioid receptor (Homo sapiens, UniProt P41143); assay: Displacement of [3H]bremazocine from cloned human delta opioid receptor expressed in CHO cells
[2] = molecular target: Kappa-type opioid receptor (Homo sapiens, UniProt P41145); assay: Displacement of [3H]diprenorphine from cloned human kappa opioid receptor expressed in CHO cells
Mu-type opioid receptor = Mu-type opioid receptor (Homo sapiens, UniProt P35372); assay: Displacement of [3H]diprenorphine from cloned human mu opioid receptor expressed in CHO cells
Mu-type opioid receptor, sequence (P35372 whole entry): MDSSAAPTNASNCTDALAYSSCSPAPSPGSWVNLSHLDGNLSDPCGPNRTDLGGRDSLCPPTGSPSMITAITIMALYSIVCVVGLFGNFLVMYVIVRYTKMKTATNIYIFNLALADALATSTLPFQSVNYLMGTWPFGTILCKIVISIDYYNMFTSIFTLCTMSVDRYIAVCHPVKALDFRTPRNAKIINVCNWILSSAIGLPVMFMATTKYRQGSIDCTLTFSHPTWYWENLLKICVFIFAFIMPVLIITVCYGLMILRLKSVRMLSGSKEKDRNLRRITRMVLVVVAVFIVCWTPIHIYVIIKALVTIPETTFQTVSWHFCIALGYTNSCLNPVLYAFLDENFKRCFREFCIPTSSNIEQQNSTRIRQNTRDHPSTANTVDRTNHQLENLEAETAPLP

Delta-type opioid receptor, sequence (P41143 whole entry): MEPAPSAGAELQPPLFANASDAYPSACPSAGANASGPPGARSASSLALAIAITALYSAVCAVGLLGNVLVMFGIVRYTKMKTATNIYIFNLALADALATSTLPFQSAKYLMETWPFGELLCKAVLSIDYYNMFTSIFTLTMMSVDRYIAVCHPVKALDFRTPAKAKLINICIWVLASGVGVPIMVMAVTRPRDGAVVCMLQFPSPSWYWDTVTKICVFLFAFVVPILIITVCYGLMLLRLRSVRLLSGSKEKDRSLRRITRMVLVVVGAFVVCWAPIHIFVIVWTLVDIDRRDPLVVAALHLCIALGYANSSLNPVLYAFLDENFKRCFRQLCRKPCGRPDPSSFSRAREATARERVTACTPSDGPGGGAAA
Kappa-type opioid receptor, sequence (P41145 whole entry): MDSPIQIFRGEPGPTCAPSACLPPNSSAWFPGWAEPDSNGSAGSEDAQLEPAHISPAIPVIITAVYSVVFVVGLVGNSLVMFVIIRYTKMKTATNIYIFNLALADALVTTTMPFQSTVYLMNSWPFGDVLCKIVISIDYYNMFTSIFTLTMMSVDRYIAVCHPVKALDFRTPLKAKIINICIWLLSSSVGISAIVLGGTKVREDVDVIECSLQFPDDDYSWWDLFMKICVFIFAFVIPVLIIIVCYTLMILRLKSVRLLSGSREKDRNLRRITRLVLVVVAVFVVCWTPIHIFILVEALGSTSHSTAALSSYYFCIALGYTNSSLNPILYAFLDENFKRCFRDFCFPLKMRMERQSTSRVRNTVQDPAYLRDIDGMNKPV

Ki [1]	Ki [2]	Ki (Mu-type opioid receptor)	Compound
232 nM	78.1 nM	11.1 nM	CC(C)CCN1CCCc2cc(Oc3ccc(C(N)=O)cn3)ccc2C1
> 5000 nM	> 5000 nM	1010 nM	NC(=O)c1ccc(Oc2ccc3c(c2)CN(Cc2ccccc2)C3)nc1
2270 nM	> 5000 nM	659 nM	NC(=O)c1ccc(Oc2ccc3c(c2)CN(CCc2ccccc2)C3)nc1
504 nM	–	20.8 nM	CCCCN1CCCc2cc(Oc3ccc(C(N)=O)cn3)ccc2C1
2350 nM	2150 nM	179 nM	NC(=O)c1ccc(Oc2ccc3c(c2)CCN(Cc2ccccc2)C3)nc1
2710 nM	2870 nM	406 nM	NC(=O)c1ccc(Oc2ccc3c(c2)CCN(Cc2ccccc2)CC3)nc1
3890 nM	61.6 nM	42 nM	CCC(CC)CN1CCCc2cc(Oc3ccc(C(N)=O)cn3)ccc2C1
2450 nM	2430 nM	232 nM	NC(=O)c1ccc(Oc2ccc3c(c2)CN(Cc2ccccc2)CC3)nc1

Further lines, the molecule ahead of its results:

Compound	Ki [1]	Ki [2]	Ki (Mu-type opioid receptor)
NC(=O)c1ccc(Oc2ccc3c(c2)CCN(CCc2ccccc2)CC3)nc1	1380 nM	> 4900 nM	91.5 nM
NC(=O)c1ccc(Oc2ccc3c(c2)CCN(CCc2ccccc2)C3)nc1	180 nM	1220 nM	16 nM
CC(C)CCCCN1CCCc2cc(Oc3ccc(C(N)=O)cn3)ccc2C1	240 nM	319 nM	11.9 nM
NC(=O)c1ccc(Oc2ccc3c(c2)CCCN(CCCN2CCOCC2)C3)nc1	2580 nM	3250 nM	216 nM
CCCCCN1CCCc2cc(Oc3ccc(C(N)=O)cn3)ccc2C1	187 nM	106 nM	11.9 nM
CC(C)CCCN1CCCc2cc(Oc3ccc(C(N)=O)cn3)ccc2C1	108 nM	106 nM	7.55 nM
NC(=O)c1ccc(Oc2ccc3c(c2)CCCN(CCN2CCOCC2)C3)nc1	1910 nM	360 nM	129 nM
NC(=O)c1ccc(Oc2ccc3c(c2)CN(CCc2ccccc2)CC3)nc1	> 5000 nM	3610 nM	> 3330 nM
NC(=O)c1ccc(Oc2ccc3c(c2)CCN(CCCc2ccccc2)C3)nc1	2140 nM	556 nM	185 nM
NC(=O)c1ccc(Oc2ccc3c(c2)CCCN(CCCC(F)(F)F)C3)nc1	388 nM	–	24.4 nM
CC(C)(C)CCN1CCCc2cc(Oc3ccc(C(N)=O)cn3)ccc2C1	409 nM	71.6 nM	18.3 nM
NC(=O)c1ccc(Oc2ccc3c(c2)CCCN(CCc2ccccc2)C3)nc1	169 nM	361 nM	10.1 nM
NC(=O)c1ccc(Oc2ccc3c(c2)CCCN(CCCC2CCCCC2)C3)nc1	466 nM	704 nM	41.7 nM
NC(=O)c1ccc(Oc2ccc(CCN3CCc4ccccc4C3)cc2)nc1	144 nM	188 nM	5.05 nM
CCCCCCN1CCCc2cc(Oc3ccc(C(N)=O)cn3)ccc2C1	163 nM	116 nM	12 nM
